Read-outs that look alike come from different tables or passages of the source. Residues, ends and D or L forms follow the SMILES beside them.
Columns and labels:
[1] = Identification threshold values (cts) of sweeteners (triangle test) and comparison with sucrose; design: species or system persons; conditions: for f suc, mol (cts): compound, sweetening power relative to sucrose, molar; for Identification Threshold Values (cts): tap water, pH 6-7 if necessary with NaOH, 5 persons, triangle test, 1 ml samples
Experimental: These sensory investigations were conducted by 5 persons; all samples were encoded by a person not participating in the test. […] Consecutive samples of 1 ml were consumed. The approximate concentration values determined in a preliminary test were inserted, in the main experiment, in the middle of a dilution series. All solutions of a compound were encoded with two water samples (triangle test). The testers must indicate which of the three samples of decreasing concentration are considered to be sweet. The identification threshold value is set forth to be the lowest concentration range (cts) at which the testers still render a correct judgment.

[2] = Degree of sweetening compared with 5% sucrose solution (taste test); design: species or system healthy volunteers; conditions: times the sweetening power of sucrose (sucrose = 1), average of 3 taste tests
Experimental: (§1) The taste tests were conducted by three healthy volunteers; the solutions were coded by letter-number combinations and randomized so that the tester could not know which compound he or she tasted. Also the reference solution (5% sucrose) remained part of the randomizing plan initially, for the purpose of general taste characteristics of the compounds.

[3] = literature (Hager's Manual), b158: also determined by all three testers in a blind taste test, cited from earlier work
mice = conditions: for Number of Dead Animals/Number of Animals Utilized: mice, intraperitoneal
[4] = General taste evaluation of aqueous solutions in concentration stages 1-8 (blind taste test); design: species or system healthy volunteers; conditions: average results of 3 taste tests
Experimental: The following concentrations correspond to the 8 concentration stages tested:
as §1

in vivo = conditions: mouse, ip

SMILES	f suc, mol (cts) [1]	Identification Threshold Values (cts) [1] [µmol/L]	Degree of Sweetening [2]	also measured
CCOc1ccc(NC(N)=O)cc1 [Dulcin]	489	15 to 30		
O=S(=O)(O)NC1CCCCC1 [Cyclamate]	5.5	1000 to 3000	< 100	Degree of sweetening known from the literature [3]: 30-70; Degree of sweetening known from the literature ([3]; listed as Sodium cyclamate): 70
O=C1NS(=O)(=O)c2ccccc21.[Na] [Sodium Saccharin]	489	15 to 30	400	Number of Dead Animals/Number of Animals Utilized (mice; 3.0 g/kg BW): 0/10; Number of Dead Animals/Number of Animals Utilized (mice; 6.0 g/kg BW): 5/10; Degree of sweetening known from the literature [3]: 400; General Taste Evaluation, concentration stage 2 ([4]; 25.0 mg/100 ml (1/200 of 5% sucrose)): Sweet; General Taste Evaluation, concentration stage 1 ([4]; 50.0 mg/100 ml (1/100 of 5% sucrose)): Sweet
OC[C@H]1O[C@@](CO)(O[C@H]2O[C@H](CO)[C@@H](O)[C@H](O)[C@H]2O)[C@@H](O)[C@@H]1O [Sucrose]	1	10000 to 12000	1	
COC(=O)[C@H](Cc1ccccc1)NC(=O)[C@@H](N)CC(=O)O [Aspartame] (H-Asp-Phe-OMe)	275	20 to 60		
NC(=O)c1c(I)cc(I)c(CCC(=O)O)c1I [E, 3-(3-carbamoyl-2,4,6-triiodophenyl)propionic acid]		1.0 to 2.0		
NC(=O)c1c(Br)cc(Br)c(CCC(=O)O)c1Br [A, 3-(3-carbamoyl-2,4,6-tribromophenyl)propionic acid]		0.6 to 1.4	6000-7000	LD50 (in vivo): ~6000 mg/kg; General compatibility (mice; intraperitoneal injection in mice): approximately the same good compatibility as sodium saccharin; Number of Dead Animals/Number of Animals Utilized (mice; 3.0 g/kg BW): 2/10; Number of Dead Animals/Number of Animals Utilized (mice; 6.0 g/kg BW): 6/10; Number of Dead Animals/Number of Animals Utilized (mice; 9.0 g/kg BW): 10/10; General Taste Evaluation, concentration stage 7 ([4]; 0.781 mg/100 ml (1/6400 of 5% sucrose)): Sweet; General Taste Evaluation, concentration stage 6 ([4]; 1.563 mg/100 ml (1/3200 of 5% sucrose)): Sweet
NC(=O)c1c(Cl)cc(Cl)c(CCC(=O)O)c1Cl [G, 3-(3-carbamoyl-2,4,6-trichlorophenyl)propionic acid]		2.5 to 4.0		
NC(=O)c1c(I)cc(I)c(OCC(=O)O)c1I [F, 3-carbamoyl-2,4,6-triiodophenoxyacetic acid]		15 to 25		

Source: patent publication US4522839A, “3-Substituted 2,4,6-trihalogenated benzamides as sweetening agents” (Schering Aktiengesellschaft, priority 1980, dated 1985)
